Assay [1] concerns endogenous Xenopus receptor. Kind of assay: Melanophore pigment aggregation control, endogenous melatonin response. Format: cell-based, Xenopus laevis. To be noted: stimulating the endogenous Xenopus receptor. The procedure:
(§1) For Gi-coupled responses, cell monolayers plated in 96-well microtiter plates were incubated in the presence of 100 μl/well of 70% L-15 media containing 2% fibroblast-conditioned growth medium, 2 mM glutamine, 100 μg/ml streptomycin, 100 units/ml penicillin and 15 mM HEPES, pH 7.3, for 15 minutes in readings at 600 nm were determined, followed by the addition of ligands. After a 1.5 hour incubation in the dark at room temperature final absorbances were determined. Absorbance readings were converted to transmission values to quantitate pigment dispersion using the following formula: 1−Tf/Ti, where Ti=the initial transmission at 600 nm and Tf=the final transmission at 600 nm.
(§2) The Xenopus melanophore system (Daniolos, et al., 1992. Pigment Cell Res. 3, 38–43) is based on the dispersion and aggregation of intracellular pigment granules in response to changes in intracellular second messenger molecules. Agonist activation of a recombinant Gs- or Gq-coupled receptor expressed heterologously in melanophores leads to pigment dispersion. […] Changes in the melanophore pigmentation show a dose-dependent correlation with the level of specific receptor activation, and can be quantified by the change in absorbance at 600 nm between the nonactivated and agonist-activated cells (Daniolos, et al., 1992. Pigment Cell Res. 3, 38–43). […]

Assay [2] relates to endogenous melanophore thrombin receptor. Nature of the assay: Pigment aggregation in mock (non-receptor) transfected melanophores. The note with it: represents activation of endogenous thrombin receptor. In kind it is cell-based, Xenopus laevis. The procedure:
as §1, §2

For `COc1ccc2[nH]cc(CCNC(C)=O)c2c1` [melatonin], the “Aggregation response (control)” value in assay [1] is given as “positive aggregation response”.

Turning to thrombin, the “Pigment aggregation response in mock (non-receptor) transfected melanophores” value in assay [2] was “detected”.

The values above are taken from US7198910B1, “Nucleic acid encoding melanin-concentrating hormone receptor” (Merck & Co., Inc., priority 1999, dated 2007).
